The nature of this data set: solubility in solvents and buffers. The data set is classed as physicochemical.

Among the data in patent US7737146B2, “Compound, useful for pancreatic lipase inhibition and the process for isolation thereof” (Council of Scientific and Industrial Research, priority 2005, dated 2010) are Solubility response values, retold here.

Entries after “also recorded” stand apart in the source; their conditions may differ.

With `CCCCCCCCCCCC/C=C/CCCCC(=O)Oc1nc2ccccc2nc1OP(O)(=S)OCCCCCCCCCCCCCCCC` (stereo not shown) [streptolipin, Nonadeca-6-enoic acid-3-(hexadecyloxy-hydroxy-thiophosphoryloxy)-quinoxalin-2-yl ester], the Solubility response entry is “Insoluble” (5% acetic acid); “Insoluble” (5% sodium bicarbonate); “Insoluble” (5% sodium hydroxide); “Soluble” (Acetone); “slightly soluble; also recorded: Sparingly soluble” (Acetonitrile); “Soluble” (Chloroform). Moreover, the Solubility response entry runs as follows: (Diethyl ether) “slightly soluble; also recorded: Sparingly soluble”; (Dimethyl sulphoxide) “Soluble”; (Ethanol) “Sparingly soluble”; (Ethyl acetate) “slightly soluble; also recorded: Sparingly soluble”; (Hexane) “Sparingly soluble”; (Methanol) “slightly soluble; also recorded: Sparingly soluble”. The Solubility response entry reads like this: (Phosphate buffer (pH 7.4-8.0)) “Insoluble”; (acetate buffer (pH 5.0, 6.0)) “Insoluble”; (tris buffer (pH 8.0, 9.0)) “Insoluble”; (water) “Insoluble”.
